# Test results reported in US5643958A, “Substituted amide derivatives” (Banyu Pharmaceutical Co., Ltd., priority 1994, dated 1997).
# Assays:
# [1] = molecular target: T1, protein-farnesyl transferase (PFT) (Rattus norvegicus, UniProt Q02293+Q04631); experiment: Inhibitory activities against protein-farnesyl transferase (PFT); format: biochemical; conditions: PFT derived from rat brain; 37° C.; preincubation 10 minutes, reaction 20 minutes; read-out: 50% inhibitory concentrations against PFT activities, IC50
# T1 construct: a soluble fraction of rat's brain was fractionated; from tissue; host or cells: rat brain, soluble fraction; 30-50% ammonium sulfate cut, dialysis, Q-Sepharose column
# Description: PFT was separated in such a manner that a soluble fraction of rat's brain was fractionated by means of 30%-50% saturated ammonium sulfate, further dialyzed and then subjected to column chromatography by Q-cephalose™ (manufactured by Pharmacia) (Reiss et al, Cell, vol. 62, p. 81-88 (1990)).
# Measurement of PFT activities was conducted by using, as a prenyl acceptor, H-ras protein or a substance that biotin was added to N-terminal of a peptide corresponding to a 7 amino acid residue at C terminal of K-rasB protein (biotin-added Lys-Thr-Ser-Cys-Val-Ile-Met) and, as a prenyl doner, [^3 H]-labeled farnesylpyrophosphate (FPP) (Reiss et al, Methods: A Companion to a Methods in Enzymology, vol. 1, No. 3, p. 241-245 (1990)).
# The [^3 H]-labeled farnesylpyrophosphate (22.5 Ci/mmol) was purchased from New England Nuclear Co. Non-labeled farnesylpyrophosphate was chemically synthesized from ditriethylammonium phosphate, trans-trans-farnesol and trichloroacetonitrile and purified by XAD-2-resin column and diethylaminoethylcellulose (Cornforth et al, Methods in Enzymology, vol. 15, p. 385-390 (1969)).
# H-ras protein was expressed in Escherichia coli and purified (Gibbs et al, Proc. Natl. Acad. Sci., vol. 81, p. 5704-5708 (1984)).
# The PFT reaction solution containing H-ras protein as the prenyl acceptor was 25 μl, and its composition was 50 mM Hepes pH7.5/50 μM ZnCl2 /5 mM MGCl2 /20 mM KCl/5mM DTT/0.6 μM all trans [^3 H]-farnesylpyrophosphate/25 μM H-ras protein/PFT derived from rat brain (Q-sephalose fraction). The reaction temperature was 37° C., the preincubation time was 10 minutes, and the reaction time was 20 minutes. […]
# The enzymatic reaction product containing H-ras protein as the prenyl acceptor, was analyzed by SDS-PAGE (sodium dodecylsulfate/polyacrylamide gel electrophoresis). […]
# The measurement of PFT activities using H-ras protein as the prenyl receptor, was also analyzed by a rapid separate method. […]
# [2] = system: NIH/ras cells; experiment: Antitumor effects to transformed cells (NIH/ras) using active type human Ha-ras, cells transplanted subcutaneously to a nude mouse; format: in vivo; conditions: once a day day 1 to 6; for Growth inhibition: day 7; for Weight of tumor, Average (g) ± standard deviation: tumor weighed day 7, control 0.22 ± 0.07
# Excerpt: (Antitumor effects to transformed cells (NIH/ras) using active type human Ha-ras)
# ^1) Tumor inoculation: 10^6 cells were transplanted subcutaneousl
# ^2) Dose: Each dose was intraperitonealy administered once a day from
# the first day to the sixth day after the inoculation of the cells.
# ^3) Weight of tumor: On the seventh day after inoculation of the
# cells, the tumors were weighed.
# ^4) Growth inhibition: (1(average weight of tumor of the treated
# group/average weight of tumor of the control group)) × 100
# *and **: Statistical analysis by ttest are 5% and 1%, respectively.
# [3] = system: farnesyl-modification of Ras protein; experiment: Inhibitory activities against farnesyl-modification of Ras protein in NIH3T3 cells transformed by activated ras gene; format: cell-based; conditions: Mus musculus, 24 hours, read-out: 50% inhibitory concentrations against farnesyl-modification of Ras protein, IC50
# Description: Using the compounds of the present invention, inhibitory activities against farnesyl-modification of Ras protein in NIH3T3 cells transformed by activated ras gene, were measured.
# The NIH3T3 cells transformed by activated ras gene, were seeded on a culture plate and cultured for 3 days. Then, a compound of the preset invention in a predetermined concentration was added to the culture. In accordance with the method disclosed in J. Biol. Chem., vol. 268, p. 18415 (1993), the cells were cultured for 24 hours and then taken off from the plate, and the cells were dissolved. After centrifugal separation for 5 minutes under 12000 g, the supernatant was used as a cell extract. The cell extract was subjected to SDS polyacrylamide gel electrophoresis to separate farnesyl-modified Ras protein and non-farnesyl-modified Ras protein. The protein on the gel was transferred onto a nitrocellulose membrane, and an anti-Ras protein antibody was reacted as a probe (primary antibody reaction). An anti-primary antibody, a peroxidase inclusion (secondary antibody), was reacted, and then Ras protein was detected by a chemical fluorescence enhancing kit. The proportion of non-farnesyl-modified Ras protein was quantified by a densitometer and taken as the inhibitory activity.
# The 50% inhibitory concentrations (IC50 values) of the compounds of the present invention against farnesyl-modification of Ras protein are shown in Table 2.
# [4] = 10 mg/kg/injection intraperitoneal
SMILES,IC50 [1] [nM],IC50 [3] [µM],further results
"C[C@H]([C@H](C/C=C/c1nc2ccccc2o1)c1ccc2c(c1)OCO2)N(Cc1ccc2ccccc2c1)C(=O)C(O)=C(CC(=O)O)C(=O)OC(C)(C)C [Example 69, 4-[N-{(1R,2R,4E)-5-(2-benzoxazolyl)-1-methyl-2-(3,4-methylenedioxyphenyl)-4-pentenyl}-N-(2-naphthylmethyl)carbamoyl]-3-tert-butoxycarbonyl-4-hydroxy-3-butenoic Acid]",–,4.5,"Growth inhibition [2, 4]: 23%; Weight of tumor, Average (g) ± standard deviation [2, 4]: 0.17 ± 0.09 g; Growth inhibition ([2]; 30 mg/kg/injection intraperitoneal): 59%; Weight of tumor, Average (g) ± standard deviation ([2]; 30 mg/kg/injection intraperitoneal, ** t-test 1%): 0.09 ± 0.05 g"
"COC(=O)c1ccc([C@H](C/C=C/c2nc3ccccc3o2)[C@H](C)N(Cc2ccc3sccc3c2)C(=O)C[C@@H](CC(=O)O)C(=O)O)cc1 (relative stereo) [Example 34, (2R^*)-2-[N-(5-benzo[b]thienylmethyl)-N-{(1RS,2RS,4E)-5-(2-benzoxazolyl)-2-(4-methoxycarbonylphenyl)-1-methyl-4-pentenyl}carbamoylmethyl]succinic Acid]",0.53,–,–
"C[C@H]([C@H](C/C=C/c1nc2ccccc2o1)c1ccc2c(c1)OCO2)N(Cc1ccc2ccccc2c1)C(=O)CC(CC(=O)O)(C(=O)O)C(=O)O (racemic) [Example 46, 3-[N-{(1RS,2RS,4E)-5-(2-benzoxazolyl)-1-methyl-2-(3,4-methylenedioxyphenyl)-4-pentenyl}-N-(2-naphthylmethyl)-carbamoyl]-1,2,2-propanetricarboxylic Acid]",–,18,–

# Continued, in another order:
IC50 [1] [nM],IC50 [3] [µM],SMILES,further results
0.46,–,"CC(C(CC=Cc1nc2ccccc2o1)c1ccc2c(c1)OCO2)N(Cc1ccc2ccccc2c1)C(=O)C(O)CCC(=O)O (stereo not drawn) [Example 59, Sodium 4-[N-{(1RS,2RS,4E)-5-(2-benzoxazolyl)-1-methyl-2-(3,4-methylenedioxyphenyl)-4-pentenyl}-N-(2-naphthylmethyl)]carbamoyl-4-hydroxybutanoate]",–
0.15,7.7,"C[C@H]([C@H](C/C=C/c1nc2ccccc2o1)c1ccc2c(c1)OCO2)N(Cc1ccc2ccccc2c1)C(=O)CC(C(=O)O)C(CC(=O)O)C(=O)O (mixture of isomers) [Example 45, 4-[N-{(1RS,2RS,4E)-5-(2-benzoxazolyl)-1-methyl-2-(3,4-methylenedioxyphenyl)-4-pentenyl}-N-(2-naphthylmethyl)carbamoyl]-1,2,3-butanetricarboxylic Acid]",–
